# Legend:
# HGC27 = assay: MTT growth inhibition (GI50); format: cell-based; conditions: Homo sapiens, HGC-27, HGC27, gastric cancer, 72 h
# Protocol: Having shown that Compound 1 and its derivatives are effective against HeLa cervical cancer cells and human fibroblast BJ cell lines, Compound 1 was then tested against a panel of thirty different human cancer cells lines derived from gastric, colon, liver, breast, lung and cervical tumours and five different human normal cell lines, which were normal fibroblast cell lines (BJ normal, IMR90, WI38) and retinal pigmented epithelium cell lines (ARPE-19, hTert-immortalized RPE-1).
# The cell lines detailed in Table 2, below, were cultured in the media shown and treated with Compound 1 at a range of different concentrations (from 0.1 μM to 10 μM) for 72 h in triplicate and a mean concentration value for Compound 1 to achieve 50% growth inhibition (GI50) in each cell line was determined by use of the MTT assay.
# The MTT assay was performed by adding thiazolyl blue tetrazolium bromide (MTT reagent, Invitrogen) at a concentration of 0.5 mg/mL to each cell culture and the resulting mixture incubated for 4 h at 37° C. The medium was then removed, and the blue dye remaining in each well was dissolved in DMSO by mixing with a microplate mixer. The absorbance of each well at 540 nm and 660 nm was measured using a microplate reader (Benchmark plus, BIO-RAD). The optical density (OD) values were calculated by subtracting the absorbance at 660 nm from the absorbance at 540 nm. Mean OD values from control cells containing only DMSO treated wells were set as 100%. The resulting GI50 values (in μM) are set out in Table 2 below.
# [1] = test system: normal cell lines (panel of five); assay: MTT growth inhibition, mean over normal cell line panel; format: cell-based; conditions: Homo sapiens, 72 h
# Protocol: FIG. 7 is a graphical representation showing that Compound 1 (a131) induces selective cell growth inhibitory effects in a broad spectrum of human cancer cells. A panel of cancer and normal cell lines were treated with Compound 1 (a131) for 72 h and a mean G150 value (the concentration required to achieve 50% growth inhibition) was determined. A Student's t-test indicated a statistically significant difference at p<0.05 (p=0.017) between normal cells and cancer cells treated with Compound 1 (a131). […]
# The MTT assay was performed by adding thiazolyl blue tetrazolium bromide (MTT reagent, Invitrogen) at a concentration of 0.5 mg/mL to each cell culture and the resulting mixture incubated for 4 h at 37° C. […] The absorbance of each well at 540 nm and 660 nm was measured using a microplate reader (Benchmark plus, BIO-RAD). The optical density (OD) values were calculated by subtracting the absorbance at 660 nm from the absorbance at 540 nm. […]
# Aqueous solubility = format: physicochemical; conditions: compared with Compound 1
aqueous solubility (Aqueous solubility),SMILES,GI50 (HGC27) [µM],GI50 [1] [µM]
,"N#C/C(=C\c1cccc2cnccc12)c1c[nH]c2ccccc12 [Compound 1, (Z)-2-(1H-indol-3-yl)-3-(isoquinolin-5-yl)acrylonitrile]",1.2,6.5
improved aqueous solubility,"CN1CCN(CC(=O)n2cc(/C(C#N)=C/c3cccc4cnccc34)c3ccccc32)CC1 [Compound 16, (Z)-3-(isoquinolin-5-yl)-2-(1-(2-(4-methylpiperazin-1-yl)acetyl)-1H-indol-3-yl)acrylonitrile]",,

# From US10308631B2, “Selective anti-cancer compounds” (NATIONAL UNIVERSITY OF SINGAPORE, priority 2015, dated 2019)
